Assays:
Format in all cases: cell-based
[1] = MTT tumor cell growth assay; settings: MCF7 cells, lansoprazole 1-100 μM, 48 hours
Procedure: (§1) In one study, adherent cells were plated approximately 16-24 hours before the day of the experiment in 180 μl growth media. On the day of the experiment, the plated adherent cells were analyzed and counted and suspension cells were plated in 180 μl growth media. 10× lansoprazole compounds and vehicle was prepared. The 10× lansoprazole compounds were prepared by diluting lansoprazole to final concentrations of 100 μM, 30 μM, 10 μM, 3 μM, and 1 μM. A vehicle was prepared by preparing a solution of PBS, equivalent to the volume used for 10 μM lansoprazole wherein the 1× solution constitutes ˜0.06% PBS. 10 μl of the various 10× lansoprazole solutions and the vehicle were added to the cells. The cells were incubated at 37° C., 5% CO2 for 48 hours. The media was then aspirated. The cell suspension was then spun at 1500 RPM for 10 minutes. The media was slowly removed. 200 μl of MTT solution was added to each well with a concentration of 0.863 mg/ml MTT in the growth media. The cells were incubated at 37° C., 5% CO2 for 4 hours and the medium is then aspirated. The plate containing the cell suspension was then spun at 1500 RPM for 10 minutes. The media was slowly removed using a multichannel pipettor. 100 μl of DMSO was then added to each well. The cells were incubated at 37° C., 5% CO2 for 5 minutes and the absorbance was obtained at 560 nm using a Dynex Opsys MR plate reader. The cells used for this procedure were the following cell lines: IGROV1 (ovarian cancer); OVCAR 8 (ovarian cancer); ES-2 (ovarian cancer); CAOV3 (ovarian cancer); OVCAR5 (ovarian cancer); SUDHL4 (lymphoma); RPMI8226 (myeloma); RPMI6666 (Hodgkin's lymphoma); NC37 (lymphoma); GDM-1 (leukemia); MC/CAR (prostate cancer); DU-145 (prostate cancer), J45-01 (leukemia), MOLT3 (leukemia), HUT78, J-gamma-1 (leukemia), MCF7 […], COL0205 (colon cancer), HL60 CLONE 15 (leukemia), T47D (breast cancer), P116 (intestinal cancer), KU812 (leukemia), SW620 (colon cancer), MK92-M1 (lymphoma), MV-4-11 (leukemia), HS578T (breast cancer), HT29 (colon cancer), HCT 116 (colon cancer), CAKI-1 (kidney cancer), A549 (lung cancer), H460 (lung cancer), A3 (colon cancer), MDA-MB231 […], MALME 3M (melanoma), RXF393 (kidney cancer), RS4.11 (leukemia), PC3 (prostate cancer), OVCAR3 (ovarian cancer), MDA-MB435 (melanoma), HUT102 (lymphoma), HL60 (leukemia), CCRF-CEM (leukemia), HUT78 (lymphoma), 786-O (kidney cancer), ACHN (kidney cancer), A498 (kidney cancer), H226 (lung cancer), H522 (lung cancer), HOP92 (lung cancer), SNB 19 (brain cancer), OVCAR4 (ovarian cancer), H9 (lymphoma), UO-31 (kidney cancer), HH (lymphoma), DAUDI (leukemia), LOXIMVI (melanoma), NAMALWA (lymphoma), EKVX (lung cancer), DOHH2 (lymphoma), SNB75 (brain cancer), SKMEL28 (melanoma), SKMEL5 (melanoma), SKMEL2 (melanoma), M14 (melanoma), UACC 257 (melanoma), H332M (lung cancer), KM12 (colon cancer), HCC2998 (colon cancer), G401 (kidney cancer), RS1184 (lymphoma), MC116 (leukemia), MOLT4 (leukemia), JM1 (liver cancer), HOP-62 (lung cancer), HCT-15 (colon cancer), SF-539 (brain cancer), SF295 (brain cancer), ST486 (lymphoma), U251 (brain cancer), and UACC-62 (melanoma).

A3 (colon cancer) = assay: MTT tumor cell growth assay; settings: A3 cells, lansoprazole 1-100 μM, 48 hours
Procedure: as §1

A498 (kidney cancer) = assay: MTT tumor cell growth assay; settings: A498 cells, lansoprazole 1-100 μM, 48 hours
Procedure: as §1

ES-2 (ovarian cancer) = assay: MTT tumor cell growth assay; settings: ES-2 cells, lansoprazole 1-100 μM, 48 hours
Procedure: as §1

HCT-15 (colon cancer) = assay: MTT tumor cell growth assay; settings: HCT-15 cells, lansoprazole 1-100 μM, 48 hours
Procedure: as §1

HL60 (leukemia) = assay: MTT tumor cell growth assay; settings: HL60 cells, lansoprazole 1-100 μM, 48 hours
Procedure: as §1

HL60 clone 15 (leukemia) = assay: MTT tumor cell growth assay; settings: HL60 clone 15 cells, lansoprazole 1-100 μM, 48 hours
Procedure: as §1

HOP-62 (lung cancer) = assay: MTT tumor cell growth assay; settings: HOP-62 cells, lansoprazole 1-100 μM, 48 hours
Procedure: as §1

IGROV 1 (ovarian cancer) = assay: MTT tumor cell growth assay; settings: IGROV 1 cells, lansoprazole 1-100 μM, 48 hours
Procedure: as §1

M14 (melanoma) = assay: MTT tumor cell growth assay; settings: M14 cells, lansoprazole 1-100 μM, 48 hours
Procedure: as §1

MDA-MB-435 (melanoma) = assay: MTT tumor cell growth assay; settings: MDA-MB-435 cells, lansoprazole 1-100 μM, 48 hours
Procedure: as §1

OVCAR8 (ovarian cancer) = assay: MTT tumor cell growth assay; settings: OVCAR8 cells, lansoprazole 1-100 μM, 48 hours
Procedure: as §1

PC3 (prostate cancer) = assay: MTT tumor cell growth assay; settings: PC3 cells, lansoprazole 1-100 μM, 48 hours
Procedure: as §1

SKMEL28 (melanoma) = assay: MTT tumor cell growth assay; settings: SKMEL28 cells, lansoprazole 1-100 μM, 48 hours
Procedure: as §1

SKMEL5 (melanoma) = assay: MTT tumor cell growth assay; settings: SKMEL5 cells, lansoprazole 1-100 μM, 48 hours
Procedure: as §1

ST486 (lymphoma) = assay: MTT tumor cell growth assay; settings: ST486 cells, lansoprazole 1-100 μM, 48 hours
Procedure: as §1

UACC257 (melanoma) = assay: MTT tumor cell growth assay; settings: UACC257 cells, lansoprazole 1-100 μM, 48 hours
Procedure: as §1

UO-31 (kidney cancer) = assay: MTT tumor cell growth assay; settings: UO-31 cells, lansoprazole 1-100 μM, 48 hours
Procedure: as §1

Measured: tumor cell growth reduction

Cc1c(OCC(F)(F)F)ccnc1C[S+]([O-])c1nc2ccccc2[nH]1 (stereo not drawn) [lansoprazole]
significant tumor cell growth reduction: all assays above
